Consider two compounds from patent US9526785B2, “Pharmaceuticals for oral delivery” (Enteris BioPharma, Inc., priority 2013, dated 2016).

Series [1] can be described thus: Kanamycin and tobramycin plasma PK after IV bolus in dogs. Format: in vivo, Beagle dogs. As for the experimental part:
(§1) Adult Beagle dogs weighing approximately 10 to 15 kg were used in the study. The animals were housed at Sinclair Research Center, Columbia, Mo. either individually or in pairs in over-sized dog runs. […] A 12-hour light/12-hour dark photoperiod was maintained. Room temperature was set to be maintained at 20±5° C. Relative humidity was monitored but not controlled. Animal room and pen cleaning were performed according to the testing facility (Sinclair) SOPs.
(§2) Animals were fasted overnight prior to drug administration and throughout the blood collection period.
(§3) Adult female Beagle dogs, weighing 9-15 kg were used in the oral and IV studies. Dogs were fasted overnight before the beginning of each study but were allowed free access to water. On the day of the study, one pre-dose blood sample of 3 mL was collected from each animal.
(§4) After administration of the drug, 3 mL blood samples were collected from the brachial vein at various time-points up to 240 minutes (4 hours) post-administration. Blood samples were collected into new heparinized monovette sampling syringes. The samples were placed on ice before being centrifuged for 10 minutes at approximately 2750 rpm at 2-8° C. Each tube was labeled with the dog ID # and time-point, and they were stored at −20° C. pending shipment.
Plasma samples were diluted appropriately with the kit assay buffer.
The maximum plasma concentration (Cmax) values and their times of occurrence (Tmax) were obtained directly from the plasma concentration vs. time profiles. The areas under the plasma concentration-time curves (AUClast) were estimated by the linear trapezoidal rule from time zero to the time of the last observed plasma concentration.

Series [2] can be described thus: in vivo. Conditions: female, beagle, dog, po. The method, then: as §1, §2, §3, §4
Plasma samples were diluted appropriately with the kit assay buffer. […]

The mark [3] stands for this setting: female, beagle, dog, in vivo, iv, 0.1 mg.

Usually AUC stands for concentration integrated over time. What is called Cmax is the highest concentration seen after dosing. For orientation: Tmax means the time from dosing to the highest level. Broadly, the bioavailability is dose-corrected exposure relative to a reference, in per cent.

Structures are written as SMILES. Several values for one entry are separate records, joined by “and”; a condition that tells them apart may be missing. Equal values may be shown once. Read-outs that look alike come from different tables or passages of the source.

Consider `NC[C@H]1O[C@H](O[C@H]2[C@H](O)[C@@H](O[C@H]3O[C@H](CO)[C@@H](O)[C@H](N)[C@H]3O)[C@H](N)C[C@@H]2N)[C@H](O)[C@@H](O)[C@@H]1O` [Kanamycin], for which the concentration at 0 min in series [1] (female, Beagle, dog, plasma, iv, 0.1 mg, single IV bolus 0.10 mg, 0 min, read-out: Plasma Concentration, Mean) was 0 ng/mL; in series [1] (female, Beagle, dog, plasma, iv, 0.1 mg, single IV bolus 0.10 mg, 0 min, read-out: Plasma Concentration, individual dogs), 0 ng/mL. This compound returned a concentration at 5 min in series [1] (female, Beagle, dog, plasma, iv, 0.1 mg, single IV bolus 0.10 mg, 5 min) of 40.8 ng/mL. The compound further had a concentration at 10 min in series [1] (female, Beagle, dog, plasma, iv, 0.1 mg, single IV bolus 0.10 mg, 10 min) of 38.6 ng/mL. The same compound registered a concentration at 15 min in series [1] (female, Beagle, dog, plasma, iv, 0.1 mg, single IV bolus 0.10 mg, 15 min) of 40.3 ng/mL. The compound further displayed a concentration at 20 min in series [1] (female, Beagle, dog, plasma, iv, 0.1 mg, single IV bolus 0.10 mg, 20 min) of 32.1 ng/mL. Also, the concentration at 30 min in series [1] (female, Beagle, dog, plasma, iv, 0.1 mg, single IV bolus 0.10 mg, 30 min) stood at 34.6 ng/mL. For the same compound, the concentration at 40 min in series [1] (female, Beagle, dog, plasma, iv, 0.1 mg, single IV bolus 0.10 mg, 40 min, read-out: Plasma Concentration, Mean) turned out to be 27.2 ng/mL; in series [1] (female, Beagle, dog, plasma, iv, 0.1 mg, single IV bolus 0.10 mg, 40 min, read-out: Plasma Concentration, individual dogs) it was 29.9 ng/mL. Further, the concentration at 60 min in series [1] (female, Beagle, dog, plasma, iv, 0.1 mg, single IV bolus 0.10 mg, 60 min, read-out: Plasma Concentration, Mean) is 25.6 ng/mL; in series [1] (female, Beagle, dog, plasma, iv, 0.1 mg, single IV bolus 0.10 mg, 60 min, read-out: Plasma Concentration, individual dogs), 31 ng/mL. This compound also had a concentration at 90 min in series [1] (female, Beagle, dog, plasma, iv, 0.1 mg, single IV bolus 0.10 mg, 90 min) of 9.24 ng/mL. Further, in series [1] (female, Beagle, dog, plasma, iv, 0.1 mg, single IV bolus 0.10 mg, 120 min), the concentration at 120 min is 10 ng/mL. In series [1] (female, Beagle, dog, plasma, iv, 0.1 mg, single IV bolus 0.10 mg, 240 min), this compound displayed a concentration at 240 min of 1.61 ng/mL. Also, the area under the curve (AUC) in series [1] (female, Beagle, dog, plasma, iv, 0.1 mg, single IV bolus 0.10 mg, read-out: AUC, Mean (converted)) is 54.2 ng·h/mL; in series [1] (female, Beagle, dog, plasma, iv, 0.1 mg, single IV bolus 0.10 mg, read-out: AUC, individual dogs (converted)), 46.5 ng·h/mL. Besides, in series [1] (female, Beagle, dog, plasma, iv, 0.1 mg, single IV bolus 0.10 mg, read-out: Cmax, Mean), the Cmax was determined as 50 ng/mL. Further, the “AUC, individual dogs” value in series [1] (single IV bolus 0.10 mg) was 3806 ng·min/mL and 3169 ng·min/mL. The “Cmax, Mean” value in series [1] (single IV bolus 0.10 mg) is reported as 50.21 ng/mL. Also, the “Cmax, individual dogs” value in series [1] (single IV bolus 0.10 mg) is 77.73 ng/mL and 54.88 ng/mL and 18.01 ng/mL. The “Tmax, individual dogs” value in series [1] (single IV bolus 0.10 mg) was 15 min and 60 min. Moreover, the “Plasma Concentration, individual dogs” value in series [1] (single IV bolus 0.10 mg, 0 min) was 0 ng/mL; in series [1] (single IV bolus 0.10 mg, 5 min), 77.73 ng/mL and 40.56 ng/mL and 3.97 ng/mL; in series [1] (single IV bolus 0.10 mg, 10 min), 37.75 ng/mL and 7.52 ng/mL; in series [1] (single IV bolus 0.10 mg, 15 min), 9.70 ng/mL; in series [1] (single IV bolus 0.10 mg, 20 min) it was 39.87 ng/mL and 14.59 ng/mL; in series [1] (single IV bolus 0.10 mg, 30 min), 43.81 ng/mL and 42.52 ng/mL and 17.48 ng/mL. Also, the “Plasma Concentration, individual dogs” value in series [1] (single IV bolus 0.10 mg, 40 min) is 34.08 ng/mL and 17.58 ng/mL; in series [1] (single IV bolus 0.10 mg, 60 min) it was 27.79 ng/mL and 18.01 ng/mL; in series [1] (single IV bolus 0.10 mg, 90 min) it was 0 ng/mL and 9.81 ng/mL and 17.91 ng/mL; in series [1] (single IV bolus 0.10 mg, 120 min), 0 ng/mL and 13.36 ng/mL and 16.63 ng/mL; in series [1] (single IV bolus 0.10 mg, 240 min), 0 ng/mL (2×) and 4.84 ng/mL.
In series [1] (female, Beagle, dog, in vivo, iv, 0.1 mg, AUC, Mean), `NC[C@H]1O[C@H](O[C@H]2[C@H](O)[C@@H](O[C@H]3O[C@H](CO)[C@@H](O)[C@H](N)[C@H]3O)[C@H](N)C[C@@H]2N)[C@H](N)C[C@@H]1O` [Tobramycin] showed an AUC of 29.7 ng·h/mL. For the same compound, the peak concentration (Cmax) was determined as 38.4 ng/mL in series [1] (female, Beagle, dog, in vivo, iv, 0.1 mg, Cmax, individual dogs) and 31 ng/mL in series [1] (female, beagle, dog, in vivo, iv, 0.1 mg, Cmax, Mean). In addition, the Tmax is 5 min in series [1] (female, Beagle, dog, in vivo, iv, 0.1 mg, individual dogs) and 5 min in series [1] (female, beagle, dog, in vivo, iv, 0.1 mg, Mean). Further, in series [1] (setting [3]), the “Cmax, Mean” value stood at 31.22 ng/mL. Moreover, the “Tmax, individual dogs” value in series [1] (setting [3]) is 5 min. This compound also returned a bioavailability in series [2] of 15%.
